The assay addresses T1, CRTH2 receptor (Homo sapiens, UniProt Q9Y5Y4).
T1 sequence (Q9Y5Y4 1-395): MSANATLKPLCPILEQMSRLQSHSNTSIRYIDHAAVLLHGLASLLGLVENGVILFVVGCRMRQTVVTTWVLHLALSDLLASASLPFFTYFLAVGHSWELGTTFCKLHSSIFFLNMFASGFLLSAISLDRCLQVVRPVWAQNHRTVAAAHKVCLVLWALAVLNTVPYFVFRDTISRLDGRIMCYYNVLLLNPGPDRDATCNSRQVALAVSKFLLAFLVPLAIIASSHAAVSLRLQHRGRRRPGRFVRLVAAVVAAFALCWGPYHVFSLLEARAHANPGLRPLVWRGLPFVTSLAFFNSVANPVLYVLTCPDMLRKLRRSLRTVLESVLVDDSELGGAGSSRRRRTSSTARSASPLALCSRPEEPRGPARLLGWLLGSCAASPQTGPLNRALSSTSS
The experiment in a line: Radioligand binding assay ([3H]-PGD2 displacement, SPA). Also on record: expressed in transfected cells; host or cells: HEK cell membranes. The conditions noted are these: HEK cell membranes expressing the CRTH2 receptor, 1 nM [3H]-PGD2; Ki from IC50 by Cheng-Prusoff. As to the method: Radioligand Binding Assay
The receptor binding assay is performed in a final volume of 200 μL binding buffer [10 mM BES (pH 7.4), 1 mM EDTA, 10 mM manganese chloride, 0.01% BSA] and 1 nM [^3H]-PGD2 (Amersham Biosciences UK Ltd). Ligands are added in assay buffer containing a constant amount of DMSO (1% by volume). Total binding is determined using 1% by volume of DMSO in assay buffer and non-specific binding is determined using 10 μM of unlabeled PGD2 (Sigma). Human embryonic kidney (HEK) cell membranes (3.5 μg) expressing the CRTH2 receptor are incubated with 1.5 mg wheatgerm agglutinin SPA beads and 1 nM [^3H]-PGD2 (Amersham Biosciences UK Ltd) and the mixture incubated for 3 hours at room temperature. Bound [^3H]-PGD2 is detected using a Microbeta TRILUX liquid scintillation counter (Perkin Elmer). Compound IC50 value is determined using a 6-point dose response curve in duplicate with a semi-log compound dilution series. IC50 calculations are performed using Excel and XLfit (Microsoft), and this value is used to determine a Ki value for the test compound using the Cheng-Prusoff equation.

For orientation: Ki means the dissociation constant of the complex between target and ligand, obtained from inhibition or displacement. Low values mean a stronger hold on the target, high ones a looser hold on the target.

Compound `Cc1nc2c(Cl)ccc(OC(C)C(=O)O)c2c(C)c1Cc1ccc(Cl)cc1` (stereo not drawn) [Example 33, 2-[8-chloro-3-(4-chlorobenzyl)-2,4-dimethylquinolin-5-yloxy]propionic Acid] showed a Ki below 100 nM.

Compound `Cc1c(Cc2ccc(S(C)(=O)=O)cc2)c(OC(F)F)nc2c(Cl)ccc(OCC(=O)O)c12` [Example 34, [8-chloro-2-difluoromethoxy-3-(4-methanesulfonylbenzyl)-4-methylquinolin-5-yloxy]acetic Acid] showed a Ki below 100 nM.

With `Cc1nc2c(Cl)ccc(OCC(=O)O)c2c(OC(F)F)c1Cc1ccc(S(C)(=O)=O)cc1Cl` [Example 35, [8-chloro-3-(2-chloro-4-methanesulfonylbenzyl)-4-difluoro-methoxy-2-methylquinolin-5-yloxy]acetic Acid], the Ki was below 100 nM.

For the compound `Cc1c(Cc2ccc(S(C)(=O)=O)cc2)c(OC(F)F)nc2c(Cl)ccc(CC(=O)O)c12` [Example 36, [8-chloro-2-difluoromethoxy-3-(4-methanesulfonylbenzyl)-4-methylquinolin-5-yl]acetic Acid], the Ki is below 100 nM.

The compound `CCc1nc2c(Cl)ccc(OCC(=O)O)c2c(OC(F)F)c1Cc1ccc(F)cc1` [Example 37, [8-chloro-4-difluoromethoxy-2-ethyl-3-(4-fluorobenzyl)quinolin-5-yloxy]acetic Acid] had a Ki below 100 nM.

Take `Cc1nc2c(Cl)ccc(OCC(=O)O)c2c(C)c1Cc1ccc(S(C)(=O)=O)cc1Cl` [Example 38, [8-chloro-3-(2-chloro-4-methanesulfonylbenzyl)-2,4-dimethylquinolin-5-yloxy]acetic Acid]: the Ki is below 100 nM.

Regarding `CCc1nc2c(Cl)ccc(OCC(=O)O)c2c(OC(F)F)c1Cc1ccc(Cl)cc1` [Example 39, [8-chloro-3-(4-chlorobenzyl)-4-difluoromethoxy-2-ethylquinolin-5-yloxy]acetic Acid], the Ki was below 100 nM.

Consider `Cc1c(Cc2ccc(S(C)(=O)=O)cc2Cl)c(OC(F)F)nc2c(Cl)ccc(OCC(=O)O)c12` [Example 40, [8-chloro-3-(2-chloro-4-methanesulfonylbenzyl)-2-difluoromethoxy-4-methylquinolin-5-yloxy]acetic Acid], for which the Ki was below 100 nM.

On to `CCc1nc2c(Cl)ccc(OCC(=O)O)c2c(CC)c1Cc1ccc(S(C)(=O)=O)cc1` [Example 41, [8-chloro-2,4-diethyl-3-(4-methanesulfonylbenzyl)quinolin-5-yloxy]acetic Acid], for which the Ki is below 100 nM.

As to `CC(C)c1nc2c(Cl)ccc(OCC(=O)O)c2c(OC(F)F)c1Cc1ccc(S(C)(=O)=O)cc1` [Example 43, [8-chloro-4-difluoromethoxy-2-isopropyl-3-(4-methanesulfonylbenzyl)quinolin-5-yloxy]acetic Acid], the Ki is below 100 nM.

`Cc1c(Cc2ccc(S(C)(=O)=O)cc2)c(C#N)nc2c(Cl)ccc(OCC(=O)O)c12` [Example 44, [8-chloro-2-cyano-3-(4-methanesulfonylbenzyl)-4-methylquinolin-5-yloxy]acetic Acid] gave a Ki below 100 nM.

`CCc1nc2c(F)ccc(OCC(=O)O)c2c(OC(F)F)c1Cc1ccc(S(C)(=O)=O)cc1` [Example 45, [4-difluoromethoxy-2-ethyl-8-fluoro-3-(4-methanesulfonylbenzyl)-quinolin-5-yloxy]acetic Acid] displayed a Ki below 100 nM.

With `Cc1c(Cc2ccc(S(C)(=O)=O)cc2Cl)c(OC(F)F)nc2c(F)ccc(OCC(=O)O)c12` [Example 46, [3-(2-chloro-4-methanesulfonylbenzyl)-2-difluoromethoxy-8-fluoro-4-methylquinolin-5-yloxy]acetic acid], the Ki is below 100 nM.

As for `CCc1nc2c(F)ccc(OCC(=O)O)c2c(OC(F)F)c1Cc1ccc(S(C)(=O)=O)cc1Cl` [Example 47, [3-(2-chloro-4-methanesulfonylbenzyl)-4-difluoromethoxy-2-ethyl-8-fluoroquinolin-5-yloxy]acetic acid], the Ki was below 100 nM.

Compound `Cc1c(Cc2ccc(S(C)(=O)=O)cc2)c(OC(F)F)nc2c(F)ccc(OCC(=O)O)c12` [Example 48, [2-difluoromethoxy-8-fluoro-3-(4-methanesulfonylbenzyl)-4-methylquinolin-5-yloxy]acetic acid] yielded a Ki below 100 nM.

`CCc1nc2c(F)ccc(OCC(=O)O)c2c(OC(F)F)c1Cc1ccc(Cl)cc1` [Example 49, [3-(4-chlorobenzyl)-4-difluoromethoxy-2-ethyl-8-fluoroquinolin-5-yloxy]acetic Acid] showed a Ki below 100 nM.

In turn, `CCc1nc2c(F)ccc(OCC(=O)O)c2c(OC(F)F)c1Cc1ccc(F)cc1` [Example 50, [4-difluoromethoxy-2-ethyl-8-fluoro-3-(4-fluorobenzyl)quinolin-5-yloxy]acetic Acid] showed a Ki below 100 nM.

In turn, `Cc1c(Cc2ccc(Cl)cc2Cl)c(OC(F)F)nc2c(F)ccc(OCC(=O)O)c12` [Example 51, [3-(2,4-dichlorobenzyl)-2-difluoromethoxy-8-fluoro-4-methylquinolin-5-yloxy]acetic Acid] displayed a Ki below 100 nM.

On to `Cc1c(Cc2ccc(F)cc2)c(OC(F)F)nc2c(F)ccc(OCC(=O)O)c12` [Example 52, [2-difluoromethoxy-8-fluoro-3-(4-fluorobenzyl)-4-methylquinolin-5-yloxy]acetic Acid], for which the Ki was below 100 nM.

For the compound `CCc1nc2c(F)ccc(OCC(=O)O)c2c(OC(F)F)c1Cc1ccc(F)cc1F` [Example 53, [3-(2,4-difluorobenzyl)-4-difluoromethoxy-2-ethyl-8-fluoroquinolin-5-yloxy]acetic Acid], the Ki was below 100 nM.

For the compound `CCc1nc2c(F)ccc(OCC(=O)O)c2c(OC(F)F)c1Cc1ccc(Cl)cc1Cl` [Example 54, [3-(2,4-dichlorobenzyl)-4-difluoromethoxy-2-ethyl-8-fluoroquinolin-5-yloxy]acetic acid], the Ki was below 100 nM.

Consider `Cc1c(Cc2ccc(F)cc2F)c(OC(F)F)nc2c(F)ccc(OCC(=O)O)c12` [Example 55, [3-(2,4-difluorobenzyl)-2-difluoromethoxy-8-fluoro-4-methylquinolin-5-yloxy]acetic acid], for which the Ki was below 100 nM.

For `Cc1c(Cc2ccc(Cl)cc2F)c(OC(F)F)nc2c(F)ccc(OCC(=O)O)c12` [Example 56, [3-(4-chloro-2-fluorobenzyl)-2-difluoromethoxy-8-fluoro-4-methylquinolin-5-yloxy]acetic Acid], the Ki is below 100 nM.

For `Cc1c(Cc2ccc(Cl)cc2)c(OC(F)F)nc2c(Cl)ccc(OCC(=O)O)c12` [Example 57, [8-chloro-3-(4-chlorobenzyl)-2-difluoromethoxy-4-methylquinolin-5-yloxy]acetic Acid], the Ki is below 100 nM.

Turning to `CCc1nc2c(F)ccc(OCC(=O)O)c2c(OC(F)F)c1Cc1ccc(F)cc1Cl` [Example 58, [3-(2-chloro-4-fluorobenzyl)-4-difluoromethoxy-2-ethyl-8-fluoroquinolin-5-yloxy]acetic Acid], the Ki is below 100 nM.

Turning to `Cc1c(Cc2ccc(F)cc2Cl)c(OC(F)F)nc2c(F)ccc(OCC(=O)O)c12` [Example 59, [3-(2-chloro-4-fluorobenzyl)-2-difluoromethoxy-8-fluoro-4-methylquinolin-5-yloxy]acetic Acid], the Ki is below 100 nM.

On to `CCc1nc2c(F)ccc(OCC(=O)O)c2c(OC(F)F)c1Cc1ccc(S(=O)(=O)CC)cc1` [Example 60, [4-difluoromethoxy-3-(4-ethanesulfonylbenzyl)-2-ethyl-8-fluoroquinolin-5-yloxy]acetic Acid], for which the Ki was below 100 nM.

Source of the values: patent US7858640B2, “Quinolines and their therapeutic use” (Pulmagen Therapeutics (Asthma) Limited, priority 2005, dated 2010).
